Laboratory results taken from the SangsterLogP compilation.

How the values were obtained:
[1] = not given; remark: listed apart in the source

Structure (SMILES) | logD ([1]; pH 13.0) | also measured
O=C(O)c1cccc(I)c1 |  | logP: 3
Oc1ccc(I)cc1 |  | logP: 2.82
Nc1cccc(I)c1 | 2.86 | 
Nc1ccc(Br)cc1 | 2 | 
Oc1cccc(Br)c1 |  | logD ([1]; pH 1.0): 2.59
Cc1cccc(N)c1 | 1.49 | 
Nc1ccc(Cl)cc1 | 1.8 | 
Cc1ccccc1N | 1.44 | 
O=C(O)c1ccc(F)cc1 |  | logP: 1.99
Nc1cccc([N+](=O)[O-])c1 | 1.43 | 
O=C(O)c1cccc(Cl)c1 |  | logD ([1]; pH 1.0): 2.51
